In publication PMC9482650, “Quantitative fragmentomics allow affinity mapping of interactomes” (Nature Communications, 2022):
Read-outs that look alike come from different tables or passages of the source. Each block holds one compound with its values, some of them ahead of it. Square brackets hold non-standard residues; d marks the D form. Ends that are not written are not given here. Peptide text beside a SMILES is read from it. pS = N[C@@H](COP(=O)(O)O)C(=O)O

Columns and labels:
[1] = molecular target: T1, SNTG2 PDZ (Homo sapiens, UniProt Q9NY99); assay: Competitive fluorescence polarization (FP) assay; assay type: binding; conditions: read-out: pKd FP (converted)
T1 sequence (Q9NY99 73-156 limits assumed): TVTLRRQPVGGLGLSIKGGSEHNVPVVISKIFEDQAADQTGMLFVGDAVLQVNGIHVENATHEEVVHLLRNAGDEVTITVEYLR

[2] = molecular target: T1, SNTG2 PDZ; assay: Holdup assay; assay type: binding; conditions: composite holdup affinity; 0.00=below quantification threshold; read-out: COMP pKd (converted)
[3] = molecular target: T2, SYNJ2BP PDZ (Homo sapiens, UniProt P57105); assay: Holdup assay; assay type: binding; conditions: composite holdup affinity; 0.00=below quantification threshold; read-out: COMP pKd (converted)
T2 sequence (P57105 13-100 limits assumed): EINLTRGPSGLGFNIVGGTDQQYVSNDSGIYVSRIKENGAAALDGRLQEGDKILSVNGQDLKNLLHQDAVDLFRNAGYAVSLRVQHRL

[4] = molecular target: DLG1_2 PDZ (Homo sapiens, UniProt Q12959); assay: Holdup assay; assay type: binding
[5] = molecular target: T3, TX1BP3 PDZ (Homo sapiens, UniProt O14907); assay: Holdup assay; assay type: binding
T3 sequence (O14907 15-112 limits assumed): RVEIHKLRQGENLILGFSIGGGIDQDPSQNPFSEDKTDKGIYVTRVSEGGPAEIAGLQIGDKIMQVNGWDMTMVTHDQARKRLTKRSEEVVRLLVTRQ

[6] = molecular target: T4, SCRIB2 PDZ (Homo sapiens, UniProt Q14160); assay: Holdup assay; assay type: binding
T4 sequence (Q14160 862-950 limits assumed): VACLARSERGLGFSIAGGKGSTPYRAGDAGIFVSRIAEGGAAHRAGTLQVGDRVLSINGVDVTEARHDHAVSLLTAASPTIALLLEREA

[7] = molecular target: SNX27 PDZ (Homo sapiens, UniProt Q96L92); assay: Holdup assay; assay type: binding
[8] = molecular target: SCRIB_1 PDZ (Homo sapiens, UniProt Q14160); assay: Holdup assay; assay type: binding
[9] = molecular target: DLG1_1 PDZ (Homo sapiens, UniProt Q12959); assay: Holdup assay; assay type: binding
[10] = molecular target: DLG1_1/2; conditions: SPR; ref Kim et al 1998; cited from earlier work
From the text: Supplement 41467_2022_33018_MOESM4_ESM.xlsx, sheet "reference DMI interactome" | column: Affinity (mM); pKd, measured in literature

[11] = system: Jurkat cell extract preys; assay: PDZ-AP-MS, biotinylated MBP-PDZ baits; assay type: binding, human
How it was run: (§1)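 Biotinylated His6-AviTag-MBP-PDZ baits, or MBP alone, saturated streptavidin resin and were then biotin-blocked. Each was incubated with 1 mg cell lysate for 2 h at 4 °C, washed, and eluted in 8 M urea. Eluates were digested with Lys-C/trypsin, run by nanoLC-MS/MS on an Orbitrap Elite (top20 CID) and searched against human SwissProt.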

[12] = system: HaCat cell extract preys; assay: PDZ-AP-MS, biotinylated MBP-PDZ baits; assay type: binding, human
How it was run: as §1

[13] = system: HeLa cell extract preys; assay: PDZ-AP-MS, biotinylated MBP-PDZ baits; assay type: binding, human; conditions: PDZ-AP-MS fold change of the PBM-protein prey
How it was run: as §1

[14] = holdup affinity of the PBM peptide of the named protein, sheet PBMcomplexome, lower sub-table, 3.5 appears to be the floor for no detectable binding, read-out: affinity of PBM to TX1BP3 (pKd) (converted)
[15] = holdup affinity of the PBM peptide of the named protein, sheet PBMcomplexome, lower sub-table, 3.5 appears to be the floor for no detectable binding, read-out: affinity of PBM to SCRIB_2 (pKd) (converted)
[16] = holdup affinity of the PBM peptide of the named protein, sheet PBMcomplexome, lower sub-table
[17] = holdup affinity of the PBM peptide of the named protein, sheet PBMcomplexome, lower sub-table, 3.5 appears to be the floor for no detectable binding, read-out: affinity of PBM to SCRIB_1 (pKd) (converted)
[18] = PBM motif of the named protein vs DLG1_2 PDZ, read-out: pKd values – domain-motif, DLG1_2 (converted)
[19] = PBM motif of the named protein vs TX1BP3 PDZ, read-out: pKd values – domain-motif, TX1BP3 (converted)
[20] = PBM motif of the named protein vs SCRIB_2 PDZ, read-out: pKd values – domain-motif, SCRIB_2 (converted)
[21] = PBM motif of the named protein vs SCRIB_1 PDZ, read-out: pKd values – domain-motif, SCRIB_1 (converted)
[22] = PBM motif of the named protein vs DLG1_1 PDZ, read-out: pKd values – domain-motif, DLG1_1 (converted)
[23] = PDZ-AP-MS fold change of the PBM-protein prey, bait MBP-PDZ DLG1_1
[24] = PDZ-AP-MS fold change of the PBM-protein prey, bait MBP-PDZ DLG1_2
[25] = PDZ-AP-MS fold change of the PBM-protein prey, bait MBP-PDZ SCRIB_1
[26] = PDZ-AP-MS fold change of the PBM-protein prey, bait MBP-PDZ SCRIB_2
[27] = PDZ-AP-MS fold change of the PBM-protein prey, bait MBP-PDZ SNX27
[28] = PDZ-AP-MS fold change of the PBM-protein prey, bait MBP-PDZ TX1BP3
[29] = bait DLG1_1 PDZ, fold change of prey
[30] = bait DLG1_2 PDZ, fold change of prey
[31] = bait SCRIB_1 PDZ, fold change of prey
[32] = bait SCRIB_2 PDZ, fold change of prey
[33] = bait SNX27 PDZ, fold change of prey
[34] = bait TX1BP3 PDZ, fold change of prey

Sequence of SCRIB_1 PDZ (Q14160 728-815 limits assumed): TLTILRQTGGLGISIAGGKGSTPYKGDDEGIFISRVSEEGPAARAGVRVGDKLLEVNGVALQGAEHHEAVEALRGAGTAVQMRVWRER

Compound: CC(C)C[C@H](NC(=O)[C@@H](NC(=O)[C@@H](NC(=O)[C@H](COP(=O)(O)O)NC(=O)[C@@H]1CCCN1C(=O)[C@H](CC(C)C)NC(=O)[C@H](CCCCN)NC(=O)[C@H](CCCNC(=N)N)NC(=O)[C@@H](NC(=O)[C@@H](N)CCCNC(=N)N)C(C)C)[C@@H](C)O)[C@@H](C)O)C(=O)O [p-3 phosphorylated RPS6KA1] (H-RVRKLP[pS]TTL-OH)
Kd [3]: 33.1 µM

Compound: RVRKLPSTTL [RPS6KA1]
Kd [3]: 151 µM

Compound: SPLHSLETSL [ATP2B1]
Kd [4, 18]: 21.4 µM
Kd [5, 19]: 35.5 µM
Kd [6, 20]: 53.7 µM
Kd [7]: 3.31 µM
Kd [8, 21]: 4.37 µM
Kd [9, 22]: 75.9 µM

Compound: SSLQSLETSV-OH [ATP2B4]
pKd, measured in literature [10]: 8.785
Fold changes, Jurkat, DLG1_1 [11, 23]: 3.92
Fold changes, Jurkat, DLG1_2 [11, 24]: 17.9481
Fold changes, Jurkat, SCRIB_1 [11, 25]: 13.9686
Fold changes, Jurkat, SCRIB_2 [11, 26]: 1.428
Fold changes, Jurkat, SNX27 [11, 27]: 34.2386
Fold changes, Jurkat, TX1BP3 [11, 28]: 1.643
Ratio DLG1_1/MBP [11, 29]: 3.92
Difference log2 ([11]; bait DLG1_2 PDZ vs MBP, enrichment of prey): 4.166
Ratio DLG1_2/MBP [11, 30]: 17.9481
Ratio SCRIB_1/MBP [11, 31]: 13.9686
Ratio SCRIB_2/MBP [11, 32]: 1.428
Ratio SNX27/MBP [11, 33]: 34.2386
Ratio TX1BP3/MBP [11, 34]: 1.643
Fold changes, HaCat, DLG1_1 [12, 23]: 6.858
Fold changes, HaCat, DLG1_2 [12, 24]: 9.323
Fold changes, HaCat, SCRIB_1 [12, 25]: 1.193
Fold changes, HaCat, SCRIB_2 [12, 26]: 2.996
Fold changes, HaCat, SNX27 [12, 27]: 25.0597
Fold changes, HaCat, TX1BP3 [12, 28]: 1.007
Ratio DLG1_1/MBP [12, 29]: 6.858
Ratio DLG1_2/MBP [12, 30]: 9.323
Ratio SCRIB_1/MBP [12, 31]: 1.193
Ratio SCRIB_2/MBP [12, 32]: 2.996
Ratio SNX27/MBP [12, 33]: 25.0597
Ratio TX1BP3/MBP [12, 34]: 1.007
Fold changes, HeLa, DLG1_1 ([13]; bait MBP-PDZ DLG1_1): 1.011
Fold changes, HeLa, DLG1_2 ([13]; bait MBP-PDZ DLG1_2): 4.653
Fold changes, HeLa, SCRIB_1 ([13]; bait MBP-PDZ SCRIB_1): 16.1327
Fold changes, HeLa, SCRIB_2 ([13]; bait MBP-PDZ SCRIB_2): 1.595
Fold changes, HeLa, SNX27 ([13]; bait MBP-PDZ SNX27): 14.9763
Fold changes, HeLa, TX1BP3 ([13]; bait MBP-PDZ TX1BP3): 0.7931

Compound: YLEPVLSSEL [ATP2A2]
Kd [5, 14]: 115 µM
Kd [6, 15]: 275 µM
Kd [7, 16]: 75.9 µM
Kd [8, 17]: 41.7 µM

The remaining lines, values ahead:

Kd [1]: 377 µM
Kd [2]: 166 µM
Compound: CC[C@H](C)[C@H](NC(=O)[C@H](CCC(N)=O)NC(=O)[C@@H](NC(=O)[C@H](Cc1c[nH]cn1)NC(=O)[C@H](CCC(N)=O)NC(=O)[C@H](CC(=O)O)NC(=O)[C@H](CCC(=O)O)NC(=O)[C@H](CC(=O)O)NC(=O)CCC(=O)NCCCOCCOCCOCCCNC(=O)CCCC[C@@H]1SC[C@@H]2NC(=O)N[C@@H]21)[C@@H](C)O)C(=O)N[C@H](C(=O)N[C@@H](CCCCNC(C)=O)C(=O)N[C@H](C(=O)O)C(C)C)[C@@H](C)O [PTEN_Ac]

Kd ([4]; holdup affinity of the PBM peptide of the named protein, sheet PBMcomplexome, lower sub-table, 3.5 appears to be the floor for no detectable binding, read-out: affinity of PBM to DLG1_2 (pKd) (converted)): 12.6 µM
Kd [5, 14]: 158 µM
Kd [6, 15]: 112 µM
Kd [7, 16]: 110 µM
Kd [8, 17]: 162 µM
Kd ([9]; holdup affinity of the PBM peptide of the named protein, sheet PBMcomplexome, lower sub-table, 3.5 appears to be the floor for no detectable binding, read-out: affinity of PBM to DLG1_1 (pKd) (converted)): 55 µM
Compound: HSATSVHTSV [MTMR1]

Kd [4, 18]: 13.8 µM
Kd [5, 19]: 61.7 µM
Kd [6, 20]: 19.1 µM
Kd [7]: 2 µM
Kd [8, 21]: 2.95 µM
Kd [9, 22]: 35.5 µM
Compound: VLRLQSETSV [VANGL1]
